Laboratory results published in ChEMBL document CHEMBL1201862, “PubChem BioAssay data set” (2004).
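48-hour exposure; five concentrations; linearly interpolated endpoints. GI50 is the concentration that inhibits growth by half.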 Activity calls are given as the source filed them. Rule as the data show it: active = GI50 up to about 1.1 µM and inactive = higher.

How the values were obtained:
Test in all cases: inhibition of tumour cell growth, NCI panel, 48 h
SF-268 = test system: SF-268
SNB-75 = test system: SNB-75
LOX IMVI = test system: LOX IMVI
A498 = test system: A498
OVCAR-8 = test system: OVCAR-8
DMS-273 = test system: DMS-273
HL-60 = test system: HL-60
RPMI-8226 = test system: RPMI-8226
CCRF-CEM = test system: CCRF-CEM
HOP-18 = test system: HOP-18
Malme-3M = test system: Malme-3M
SN12C = test system: SN12C
OVCAR-3 = test system: OVCAR-3
SK-MEL-28 = test system: SK-MEL-28
IGROV-1 = test system: IGROV-1
ACHN = test system: ACHN
BT-549 = test system: BT-549
TK-10 = test system: TK-10
SR = test system: SR
786-0 = test system: 786-0

SMILES	GI50 (SF-268)	GI50 (SNB-75)	GI50 (LOX IMVI)	GI50 (A498)	GI50 (OVCAR-8)	GI50 (DMS-273)	GI50 (HL-60)	GI50 (RPMI-8226)	GI50 (CCRF-CEM)	GI50 (HOP-18)	GI50 (Malme-3M)	GI50 (SN12C)	GI50 (OVCAR-3)	GI50 (SK-MEL-28)	GI50 (IGROV-1)	GI50 (ACHN)	GI50 (BT-549)	GI50 (TK-10)	GI50 (SR)	GI50 (786-0)
CCOC(=O)CNC(=O)N(CC)C12CC3CC(CC(C3)C1)C2	143 µM (inactive)	131 µM (inactive)	115 µM (inactive)	115 µM (inactive)	150 µM (inactive)	132 µM (inactive)	107 µM (inactive)	115 µM (inactive)	135 µM (inactive)	179 µM (inactive)	133 µM (inactive)	147 µM (inactive)	114 µM (inactive)	206 µM (inactive)	184 µM (inactive)	–	–	–	–	–
O=C1c2cccc3cc4ccccc4c(c23)C(=O)N1CCNCCN1C(=O)c2cccc3cc4ccccc4c(c23)C1=O	1.22 µM (inactive)	0.373 µM (active)	0.233 µM (active)	0.716 µM (active)	0.357 µM (active)	0.277 µM (active)	0.178 µM (active)	0.718 µM (active)	0.199 µM (active)	0.231 µM (active)	0.465 µM (active)	0.306 µM (active)	0.484 µM (active)	0.592 µM (active)	0.589 µM (active)	–	–	–	–	–
O=C(O)c1cccc2cccc(-c3c4ccc(=O)cc-4oc4cc(O)ccc34)c12	> 100 µM (inactive)	60.1 µM (inactive)	> 100 µM (inactive)	> 100 µM (inactive)	> 100 µM (inactive)	–	62.7 µM (inactive)	32.6 µM (inactive)	69.2 µM (inactive)	–	> 100 µM (inactive)	> 100 µM (inactive)	21.3 µM (inactive)	> 100 µM (inactive)	75 µM (inactive)	> 100 µM (inactive)	> 100 µM (inactive)	> 100 µM (inactive)	–	–
O=C1Nc2ccc(S(=O)(=O)N(CCO)CCO)cc2/C1=C1/Nc2ccccc2C1=O	> 100 µM (inactive)	2.82 µM (inactive)	> 100 µM (inactive)	> 100 µM (inactive)	> 100 µM (inactive)	–	–	> 100 µM (inactive)	> 100 µM (inactive)	–	> 100 µM (inactive)	> 100 µM (inactive)	18.2 µM (inactive)	> 100 µM (inactive)	2.5 µM (inactive)	> 100 µM (inactive)	> 100 µM (inactive)	> 100 µM (inactive)	1.91 µM (inactive)	> 100 µM (inactive)
CC1OC(OC2C(OC(=O)[C@@H]3CC(C)(C)C[C@H]4C5=CC[C@@H]6[C@@]7(C)C[C@H](O)[C@H](OC8OC(CO)C(O)C(O)C8O)[C@@](C)(CO)[C@@H]7[C@H](O)C[C@@]6(C)[C@]5(C)CC[C@@]34C)OCC(O)C2O)C(O)C(O)C1O (stereo not given in full)	> 7.5 µM (inactive)	> 7.5 µM (inactive)	> 7.5 µM (inactive)	–	> 7.5 µM (inactive)	–	> 7.5 µM (inactive)	–	> 7.5 µM (inactive)	–	> 7.5 µM (inactive)	> 7.5 µM (inactive)	> 7.5 µM (inactive)	–	> 7.5 µM (inactive)	> 7.5 µM (inactive)	> 7.5 µM (inactive)	> 7.5 µM (inactive)	–	> 7.5 µM (inactive)
CSc1sc(=S)sc1SC	> 100 µM (inactive)	46.9 µM (inactive)	> 100 µM (inactive)	> 100 µM (inactive)	> 100 µM (inactive)	77.8 µM (inactive)	> 31.6 µM (inactive)	> 100 µM (inactive)	> 100 µM (inactive)	> 100 µM (inactive)	> 100 µM (inactive)	> 100 µM (inactive)	> 100 µM (inactive)	> 100 µM (inactive)	> 100 µM (inactive)	–	–	–	–	–
CC1CC2C3CC(F)C4=CC(=O)C=CC4(C)C3(F)C(O)CC2(C)C1(O)C(=O)COC(=O)C(C)(C)C (stereo not given)	64.4 µM (inactive)	82.2 µM (inactive)	> 100 µM (inactive)	–	–	> 100 µM (inactive)	> 100 µM (inactive)	44.4 µM (inactive)	0.0203 µM (active)	–	> 100 µM (inactive)	–	> 100 µM (inactive)	37.2 µM (inactive)	64.1 µM (inactive)	32.7 µM (inactive)	–	77.1 µM (inactive)	> 100 µM (inactive)	68.1 µM (inactive)
CC(=O)N/C(=C\c1ccc(/C=C(\NC(C)=O)C2=NC3C(=O)c4ccccc4C(=O)C3N2)cc1)C1=NC2C(=O)c3ccccc3C(=O)C2N1 (stereo not given)	5.7 µM (inactive)	6.98 µM (inactive)	6.92 µM (inactive)	5.57 µM (inactive)	22.4 µM (inactive)	19.6 µM (inactive)	3.96 µM (inactive)	5.05 µM (inactive)	0.865 µM (active)	71.3 µM (inactive)	–	22.6 µM (inactive)	49.3 µM (inactive)	> 100 µM (inactive)	8.47 µM (inactive)	4.1 µM (inactive)	–	12.1 µM (inactive)	–	–
C=C1C(=O)OC2CC(C)C3C4OC4C(O)C3(C)C(O)C12 (stereo not given)	23.8 µM (inactive)	41.7 µM (inactive)	14 µM (inactive)	16 µM (inactive)	28.4 µM (inactive)	18.4 µM (inactive)	13.8 µM (inactive)	13.7 µM (inactive)	12 µM (inactive)	24.4 µM (inactive)	20.9 µM (inactive)	23 µM (inactive)	25.9 µM (inactive)	23.6 µM (inactive)	18.6 µM (inactive)	–	–	–	–	–
O=C1c2ccccc2C(=O)c2c1ccc1c2N=C(c2ccc(F)cc2)CC(c2ccc(Cl)c(Cl)c2)N1 (stereo not given)	15.2 µM (inactive)	20.5 µM (inactive)	3.94 µM (inactive)	19.5 µM (inactive)	13.4 µM (inactive)	–	3.94 µM (inactive)	3.15 µM (inactive)	2.13 µM (inactive)	–	–	17.3 µM (inactive)	–	19.3 µM (inactive)	10.3 µM (inactive)	13.9 µM (inactive)	–	13.8 µM (inactive)	5.93 µM (inactive)	–
CCC1OC(=O)C(C)C(OC2CC(C)(O)C(O)C(C)O2)C(C)C(O)C(C)(O)CC(C)C(=O)C(C)C(O)C1C (stereo not given)	> 300 µM (inactive)	> 300 µM (inactive)	> 300 µM (inactive)	> 267 µM (inactive)	> 300 µM (inactive)	> 300 µM (inactive)	> 300 µM (inactive)	> 300 µM (inactive)	> 300 µM (inactive)	> 300 µM (inactive)	> 300 µM (inactive)	> 300 µM (inactive)	> 300 µM (inactive)	> 300 µM (inactive)	> 300 µM (inactive)	–	–	–	–	–
COc1ccc(/C=C2\Oc3cc(OC(C)=O)ccc3C2=O)cc1	> 100 µM (inactive)	> 100 µM (inactive)	–	–	> 100 µM (inactive)	–	94 µM (inactive)	57.3 µM (inactive)	73.6 µM (inactive)	–	–	> 100 µM (inactive)	> 100 µM (inactive)	> 100 µM (inactive)	> 100 µM (inactive)	> 100 µM (inactive)	> 100 µM (inactive)	> 100 µM (inactive)	60.8 µM (inactive)	> 100 µM (inactive)
COC(=O)C1=CC[C@@H]2C(C(=O)O)=CO[C@@H](OC3OC(CO)C(O)C(O)C3O)[C@H]12 (stereo not given in full)	> 300 µM (inactive)	> 300 µM (inactive)	> 300 µM (inactive)	> 30 µM (inactive)	> 300 µM (inactive)	> 300 µM (inactive)	> 300 µM (inactive)	> 300 µM (inactive)	> 119 µM (inactive)	13.7 µM (inactive)	> 263 µM (inactive)	> 300 µM (inactive)	> 300 µM (inactive)	> 300 µM (inactive)	> 300 µM (inactive)	–	–	–	–	–
CCC/C=C/C=C\C(=O)O[C@@H]1[C@@H](C)[C@]2(O)[C@@H]3C=C(C)C(=O)[C@H]3CC(COC(C)=O)=C[C@H]2[C@@H]2C(C)(C)[C@]12OC(C)=O	39.7 µM (inactive)	57.7 µM (inactive)	16.8 µM (inactive)	1.99 µM (inactive)	40.7 µM (inactive)	22.6 µM (inactive)	2.33 µM (inactive)	22.9 µM (inactive)	3.56 µM (inactive)	28 µM (inactive)	33.2 µM (inactive)	40.3 µM (inactive)	46.7 µM (inactive)	39.4 µM (inactive)	48.4 µM (inactive)	–	–	–	–	–
Cc1cc(NS(=O)(=O)c2ccc(Nc3c4ccccc4nc4c(C(=O)N5CCN(CCO)CC5)ccc(Cl)c34)cc2)no1	98.9 µM (inactive)	29.6 µM (inactive)	–	> 100 µM (inactive)	> 100 µM (inactive)	> 100 µM (inactive)	60.3 µM (inactive)	70.1 µM (inactive)	28.8 µM (inactive)	–	> 100 µM (inactive)	72.1 µM (inactive)	> 100 µM (inactive)	> 100 µM (inactive)	96.2 µM (inactive)	–	–	> 100 µM (inactive)	–	> 100 µM (inactive)
COc1cc(OC)c(SSCCCCS(=O)O)c(OC)c1	15.5 µM (inactive)	10.6 µM (inactive)	10.7 µM (inactive)	14.6 µM (inactive)	16 µM (inactive)	16.7 µM (inactive)	3.91 µM (inactive)	–	5.45 µM (inactive)	18 µM (inactive)	12.2 µM (inactive)	17.6 µM (inactive)	15.1 µM (inactive)	15 µM (inactive)	21 µM (inactive)	16.1 µM (inactive)	–	21.3 µM (inactive)	–	18.7 µM (inactive)
O=C1/C(=C/c2ccc(Cl)cc2)CNC/C1=C\c1ccc(Cl)cc1	1.51 µM (inactive)	4.36 µM (inactive)	1.57 µM (inactive)	4.65 µM (inactive)	2.04 µM (inactive)	–	–	0.5 µM (active)	–	–	6.08 µM (inactive)	2.59 µM (inactive)	2.01 µM (inactive)	1.5 µM (inactive)	1.58 µM (inactive)	3.28 µM (inactive)	1.18 µM (inactive)	3.95 µM (inactive)	0.495 µM (active)	1.28 µM (inactive)
